Source: patent EP0048954A2, “Beta-lactam compounds, process for the preparation thereof and intermediate products for the preparation thereof” (SAGAMI CHEMICAL RESEARCH CENTER, priority 1980, dated 1982)
≈ marks a conversion by molar mass, not a printed value. Where “and” joins values, the source holds several entries; their conditions need not be identical. Identical values can stand only once. Counter-ions that a name gives are not always drawn. Like-named read-outs stand apart in the source and are kept apart here.

Columns and labels:
Experiment in all cases: Antibacterial activity, minimum inhibition concentration (method of The Chemotherapy Association, Japan)
Type in all cases: cell-based
[1] = test system: Proteus vulgaris OX-19; conditions: for MIC: Proteus vulgaris, OX19, strain H: Proteus vulgaris OX-19, read-out: minimum inhibition concentration; for minimum inhibition concentration: strain H: Proteus vulgaris OX-19
Description: (§1) The abbreviations A to P will be used in the following Tables 2 to 8.
(§2) Test results are shown in terms of the minimum inhibition concentration (µg/mℓ.) in the following Tables 2 to 8.

[2] = test system: Proteus rettgeri NIH-96; conditions: for MIC: Providencia rettgeri, NIH96, strain I: Proteus rettgeri NIH-96, read-out: minimum inhibition concentration; for minimum inhibition concentration: strain I: Proteus rettgeri NIH-96
Description: as §1, §2

[3] = test system: Klebsiella pneumoniae; conditions: strain C: Klebsiella pneumoniae; for MIC: Klebsiella pneumoniae, read-out: minimum inhibition concentration
Description: (§3) Antibacterial activities of the compounds according to this invention, which had been prepared in the preceding Examples, were measured according to the method prescribed by The Committee of Amendment of "The method for measurement of the minimum inhibition concentration", The Chemotherapy Association, Japan (See Chemotherapy, Vol. 22, No. 6, pp. 1126 - 1128 (1974) and Vol. 29, No. 1, pp. 76 - 79 (1981)).
as §1, §2

[4] = test system: Escherichia coli NIHJ; conditions: for MIC: Escherichia coli, read-out: minimum inhibition concentration
Description: as §3, §1, §2

[5] = test system: Pseudomonas aeruginosa NCTC-10490; conditions: for MIC: Pseudomonas aeruginosa; for minimum inhibition concentration: strain M: Pseudomonas aeruginosa NCTC-10490
Description: as §3, §1, §2

[6] = test system: Serratia marcescens 1023
Description: as §3, §1, §2

[7] = test system: Salmonella typhimurium 3173; conditions: for MIC: Salmonella enterica, TYPHIMURIUM
Description: as §3, §1, §2

[8] = test system: Citrobactor freundii NIH-10018 -68; conditions: strain O: Citrobactor freundii NIH-10018 -68; for MIC: read-out: minimum inhibition concentration
Description: as §3, §1, §2

[9] = test system: Bacillus subtilis ATCC 6633; conditions: for MIC: Bacillus subtilis, ATCC6633, strain B: Bacillus subtilis ATCC 6633, read-out: minimum inhibition concentration; for minimum inhibition concentration: strain B: Bacillus subtilis ATCC 6633
Description: as §3, §1, §2

[10] = test system: Serratia marcescens IFO-3736; conditions: for MIC: Serratia marcescens; for minimum inhibition concentration: strain F: Serratia marcescens IFO-3736
Description: as §3, §1, §2

[11] = test system: Proteus morgani Kono; conditions: for MIC: read-out: minimum inhibition concentration
Description: as §3, §1, §2

[12] = test system: Escherichia coli NIHJC-2; conditions: for MIC: Escherichia coli; for minimum inhibition concentration: strain L: Escherichia coli NIHJC-2
Description: as §3, §1, §2

[13] = test system: Staphylococcus aureus 6538-P; conditions: strain A: Staphylococcus aureus 6538-P; for MIC: read-out: minimum inhibition concentration
Description: as §3, §1, §2

[14] = test system: Proteus mirabillis B-30-2 IFO-3849
Description: as §3, §1, §2

[15] = test system: Enterobactor cloacae NCTC-9394; conditions: strain N: Enterobactor cloacae NCTC-9394; for MIC: read-out: minimum inhibition concentration
Description: as §3, §1, §2

[16] = strain K: Escherichia coli NIHJ
[17] = NCTC10490, strain M: Pseudomonas aeruginosa NCTC-10490, read-out: minimum inhibition concentration
[18] = strain D: Salmonella typhimurium 3173, read-out: minimum inhibition concentration
[19] = IFO3736, strain F: Serratia marcescens IFO-3736, read-out: minimum inhibition concentration
[20] = NIHJC2, strain L: Escherichia coli NIHJC-2, read-out: minimum inhibition concentration
[21] = strain G: Proteus mirabillis B-30-2 IFO-3849, read-out: minimum inhibition concentration
[22] = strain D: Salmonella typhimurium 3173
[23] = strain G: Proteus mirabillis B-30-2 IFO-3849

## CC(=O)OCC1=C(C(=O)O)N2C(=O)C(NC(=O)C(=C(Cl)Cl)c3ccco3)[C@H]2SC1 (stereo partly drawn) [Compound 33, 7-[2-dichloromethylene-2-(2-furyl)acetamido]-3-acetoxymethyl-3-cephem-4-carboxylic acid]
[1]
  MIC: 6.25 µg/mL (≈ 13.5 µM)
[2]
  MIC: 0.1 µg/mL (≈ 0.217 µM)
[3]
  MIC: 100 µg/mL (≈ 217 µM)
[4]; [16]
  MIC: 1.56 µg/mL (≈ 3.38 µM)
[5]; [17]
  MIC: 12.5 µg/mL (≈ 27.1 µM)
[6]; Serratia marcescens, 1023, strain E: Serratia marcescens 1023, read-out: minimum inhibition concentration
  MIC: 25 µg/mL (≈ 54.2 µM)
[7]; [18]
  MIC: 50 µg/mL (≈ 108 µM)
[8]
  MIC: 50 µg/mL (≈ 108 µM)
[9]
  MIC: 6.25 µg/mL (≈ 13.5 µM)
[10]; [19]
  MIC: 100 µg/mL (≈ 217 µM)
[11]; strain J: Proteus morgani Kono
  MIC: > 100 µg/mL
[12]; [20]
  MIC: 100 µg/mL (≈ 217 µM)
[13]
  MIC: 0.39 µg/mL (≈ 0.845 µM)
[14]; [21]
  MIC: 100 µg/mL (≈ 217 µM)
[15]
  MIC: 25 µg/mL (≈ 54.2 µM)

## CC1=C(C(=O)O)N2C(=O)C(NC(=O)C(=C(Cl)Cl)c3csc(N)n3)C2SC1 (stereo not drawn) [8-(3), 7-[2-dichloromethylene-2-(2-aminothiazol-4-yl)-acetamido]-desacetoxycephalosporanic acid sodium salt]
[1]
  MIC: 12.5 µg/mL
[2]
  MIC: 0.2 µg/mL
[3]
  MIC: > 100 µg/mL
[4]; [16]
  MIC: 6.25 µg/mL
[5]; [17]
  MIC: > 100 µg/mL
[7]; [18]
  MIC: > 100 µg/mL
[8]
  MIC: > 100 µg/mL
[9]
  MIC: 100 µg/mL
[10]; [19]
  MIC: > 100 µg/mL
[11]; strain J: Proteus morgani Kono
  MIC: > 100 µg/mL
[12]; [20]
  MIC: 100 µg/mL
[13]
  MIC: 25 µg/mL
[14]; [21]
  MIC: 100 µg/mL
[15]
  MIC: 100 µg/mL

## CC(=O)OCC1=C(C(=O)O)N2C(=O)C(NC(=O)C(=C(Cl)Cl)c3ccccc3)[C@H]2SC1 (stereo partly drawn) [Compound 38, 7-(2-dichloromethylene-2-phenylacetamido)-3-acetoxymethyl-3-cephem-4-carboxylic acid]
[4]; [16]
  MIC: 3.1 µg/mL (≈ 6.58 µM)
[5]; [17]
  MIC: > 100 µg/mL
[13]
  MIC: 1.56 µg/mL (≈ 3.31 µM)

## Cn1nnnc1SCC1=C(C(=O)O)N2C(=O)C(NC(=O)C(=C(Cl)Cl)c3csc(N)n3)C2SC1 (stereo not drawn) [6-(3), 7-[2-dichloromethylene-(2-aminothiazol-4-yl)-acetamido]-3-(l-methyl-lH-tetrazol-5-yl)thiomethyl-3-cephem-4-carboxylic acid sodium salt]
[1]
  minimum inhibition concentration: 0.1 µg/mL
[2]
  minimum inhibition concentration: <0.025 µg/mL
[3]; sodium salt
  minimum inhibition concentration: 6.25 µg/mL
[4]; strain K: Escherichia coli NIHJ, sodium salt
  minimum inhibition concentration: 0.05 µg/mL
[7]; strain D: Salmonella typhimurium 3173, sodium salt
  minimum inhibition concentration: 3.125 µg/mL
[9]; sodium salt
  minimum inhibition concentration: 25 µg/mL
[13]
  minimum inhibition concentration: 0.78 µg/mL

## CN(C)CCn1nnnc1SCC1=C(C(=O)O)N2C(=O)C(NC(=O)C(=C(Cl)Cl)c3csc(N)n3)C2SC1 (stereo not drawn) [10-(1), 7-[2-dichloromethylene-2-(2-aminothiazol-4-yl)-acetamido]-3-[l-(2-dimethylaminoethyl)-lH-tetrazol-5-yl]thiomethyl-3-cephem-4-carboxylic acid]
[1]
  MIC: 0.78 µg/mL (≈ 1.29 µM)
[2]
  MIC: 0.05 µg/mL (≈ 0.0824 µM)
[3]
  MIC: 12.5 µg/mL (≈ 20.6 µM)
[4]; [16]
  MIC: 0.1 µg/mL (≈ 0.165 µM)
[5]; [17]
  MIC: 25 µg/mL (≈ 41.2 µM)
[7]; [18]
  MIC: 12.5 µg/mL (≈ 20.6 µM)
[8]
  MIC: 12.5 µg/mL (≈ 20.6 µM)
[9]
  MIC: 12.5 µg/mL (≈ 20.6 µM)
[10]; [19]
  MIC: 50 µg/mL (≈ 82.4 µM)
[11]; strain J: Proteus morgani Kono
  MIC: 12.5 µg/mL (≈ 20.6 µM)
[12]; [20]
  MIC: 12.5 µg/mL (≈ 20.6 µM)
[13]
  MIC: 3.12 µg/mL (≈ 5.15 µM)
[14]; [21]
  MIC: 25 µg/mL (≈ 41.2 µM)
[15]
  MIC: 3.12 µg/mL (≈ 5.15 µM)

## CSc1nnc(SCC2=C(C(=O)O)N3C(=O)C(NC(=O)C(=C(Cl)Cl)c4csc(N)n4)C3SC2)s1 (stereo not drawn) [9-(2), 7-[2-dichloromethylene-2-(aminothiazol-4-yl)-acetamido]-3-(2-methylthio-l,3,4-thiadiazol-5-yl) thiomethyl-3-cephem-4-carboxylic acid sodium salt]
[1]
  MIC: 0.2 µg/mL
[2]
  MIC: < 0.025 µg/mL
[3]
  MIC: 12.5 µg/mL
[4]; [16]
  MIC: < 0.025 µg/mL
[5]; [17]
  MIC: 12.5 µg/mL
[7]; [18]
  MIC: 12.5 µg/mL
[8]
  MIC: 12.5 µg/mL
[9]
  MIC: 3.12 µg/mL
[10]; [19]
  MIC: 50 µg/mL
[11]; strain J: Proteus morgani Kono
  MIC: 12.5 µg/mL
[12]; [20]
  MIC: 25 µg/mL
[13]
  MIC: 0.78 µg/mL
[14]; [21]
  MIC: 25 µg/mL
[15]
  MIC: 3.12 µg/mL

## 7-[2-dichloromethylene-2-(2-aminothiazol-4-yl)acetamido]-3-(l-carboxymethyltetrazol-5-yl)thiomethyl-3-cephem-4-carboxylic acid disodium salt [7-(3)]
[1]
  minimum inhibition concentration: 0.1 µg/mL
[2]
  minimum inhibition concentration: <0.025 µg/mL
[3]
  minimum inhibition concentration: 12.5 µg/mL
[4]; [16]
  minimum inhibition concentration: <0.025 µg/mL
[5]
  minimum inhibition concentration: 6.25 µg/mL
[7]; [22]
  minimum inhibition concentration: 6.25 µg/mL
[8]
  minimum inhibition concentration: 12.5 µg/mL
[9]
  minimum inhibition concentration: 12.5 µg/mL
[10]
  minimum inhibition concentration: 25 µg/mL
[11]; strain J: Proteus morgani Kono
  minimum inhibition concentration: 3.125 µg/mL
[12]
  minimum inhibition concentration: 25 µg/mL
[13]
  minimum inhibition concentration: 6.25 µg/mL
[14]; [23]
  minimum inhibition concentration: 1.56 µg/mL
[15]
  minimum inhibition concentration: 3.125 µg/mL

## 7-[2-chloromethylene-2-(2-aminothiazol-4-yl)acetamido]-3-[(2,5-dihydro-6-hydroxy-2-methyl-5-oxo-as-triazin-3-yl)thiomethyl-3-cephem-4-carboxylic acid disodium salt [Compound 22]
[1]
  minimum inhibition concentration: 0.1 µg/mL
[3]
  minimum inhibition concentration: 0.78 µg/mL
[4]; [16]
  minimum inhibition concentration: <0.00625 µg/mL
[5]
  minimum inhibition concentration: 6.25 µg/mL
[6]; strain E: Serratia marcescens 1023
  minimum inhibition concentration: 6.25 µg/mL
[7]; [22]
  minimum inhibition concentration: 1.56 µg/mL
[8]
  minimum inhibition concentration: 1.56 µg/mL
[9]
  minimum inhibition concentration: 6.25 µg/mL
[10]
  minimum inhibition concentration: 1.56 µg/mL
[11]; strain J: Proteus morgani Kono
  minimum inhibition concentration: 0.39 µg/mL
[12]
  minimum inhibition concentration: 3.125 µg/mL
[13]
  minimum inhibition concentration: 0.78 µg/mL
[14]; [23]
  minimum inhibition concentration: 0.39 µg/mL
[15]
  minimum inhibition concentration: 0.39 µg/mL

## CC(=O)OCC1=C(C(=O)O)N2C(=O)[C@@H](NC(=O)Cc3cccs3)[C@H]2SC1 [Cephalo-thin, reference compound]
[4]
  MIC: 12.5 µg/mL (≈ 31.5 µM)
[5]; NCTC10490, read-out: minimum inhibition concentration
  MIC: > 100 µg/mL
[7]; read-out: minimum inhibition concentration, strain D: Salmonella typhimurium 3173
  MIC: 3.17 µg/mL (≈ 8.01 µM)
[7]; [22]
  minimum inhibition concentration: 6.25 µg/mL (≈ 15.8 µM)
[10]; IFO3736, read-out: minimum inhibition concentration
  MIC: > 100 µg/mL
[11]
  MIC: > 100 µg/mL
[12]; NIHJC2, read-out: minimum inhibition concentration
  MIC: 12.5 µg/mL (≈ 31.5 µM)
[12]; [20]
  MIC: 25 µg/mL (≈ 63.1 µM)
[12]
  minimum inhibition concentration: 50 µg/mL (≈ 126 µM)
[14]; read-out: minimum inhibition concentration, strain G: Proteus mirabillis B-30-2 IFO-3849
  MIC: 12.5 µg/mL (≈ 31.5 µM)
[14]; [23]
  minimum inhibition concentration: 25 µg/mL and 12.5 µg/mL
[15]
  minimum inhibition concentration: >100 µg/mL
  MIC: 50 µg/mL (≈ 126 µM)
